Read-outs that look alike come from different tables or passages of the source.
What was measured:
Type in all cases: cell-based
[1] = tested on: drug-resistant Escherichia coli II (drug-resistant Escherichia coli 1864); assay: Chessboard microbroth dilution MIC/FIC, compound A in combination with meropenem
From the text: (§1) This experiment is designed to determine the minimum inhibitory concentration (MIC) of compound A in combination with meropenem against drug-resistant Escherichia coli I (a strain resistant to carbapenem antibiotics) and drug-resistant Escherichia coli II (a strain resistant to fluoroquinolone antibiotics, non-fluoroquinolone antibiotics, aminoglycoside antibiotics, glycopeptide antibiotics and carbapenem antibiotics), and to calculate the fractional inhibitory concentration (FIC) index.
(§2) 1 strain of drug-resistant Escherichia coli II, namely drug-resistant Escherichia coli 1864, is provided by the School of Pharmacy of Fudan University. This strain is resistant to fluoroquinolone antibiotics (such as levofloxacin), non-fluoroquinolone antibiotics (such as nalidixic acid, nemofloxacin), aminoglycoside antibiotics (such as gentamicin), glycopeptide antibiotics (such as vancomycin) and carbapenem antibiotics (such as meropenem).
(§3) According to the recommendation of the Clinical and Laboratory Standards Institute (CLSI), the microbroth dilution method designed by the chessboard method was used to determine the minimum inhibitory concentration (MIC) of compound A in combination with meropenem against the above strains, and the fractional inhibitory concentration (FIC) index was calculated.
(§4) Compound A was dissolved in dimethyl sulfoxide to obtain a stock solution I with a concentration of 1280 mg/L. The stock solution I was diluted to 512 mg/L with sterile water to obtain a gradient dilution first tube solution I. The gradient dilution first tube solution I was subjected to 1:1 gradient dilution with sterile water to obtain a working solution I with a gradient range of 512 to 0.25 mg/L.
(§5) Meropenem was dissolved in sterile water to obtain a stock solution II with a concentration of 5120 mg/L. The stock solution II was diluted to 1024 mg/L with sterile water to obtain a gradient dilution first tube solution II. The gradient dilution first tube solution II was subjected to 1:1 gradient dilution with sterile water to obtain a working solution II with a gradient range of 1024 to 0.5 mg/L.
(§6) According to the method in Example 1, a drug sensitive plate was prepared with working solution I and working solution II, and the specific process will not be repeated here.
(§7) (2) The culture medium of the bacterial solution: Cation-Adjusted Mueller-Hinton Broth (CAMHB), a product of BBL, USA, batch number 9015952.
(§8) (3) Formulation method of bacterial solution: According to the direct colony suspension method, the test bacteria cultured overnight were prepared into a 0.5 McFarland turbidity tube using physiological saline. Then, the resulting solution was dilute 100 times with the above culture medium. 100 μL of the resulting bacterial solution was mixed well with the solution (100 μL) in each well of the drug sensitivity plate, and the final inoculation amount was 10^5 CFU/mL.
(§9) (4) Culture conditions: Culturing at 35±2° C. for 20 hours in air.
(§10) (1) The experimental results were determined according to the standard of CLSI 2019 M100 29th edition.
(§11) wherein: FIC≤0.5 indicates synergistic effect; 0.5<FIC≤1.0 indicates additive effect; 1<FIC≤2.0 indicates irrelevant effect; and FIC>2 indicates antagonistic effect.

[2] = tested on: drug-resistant Escherichia coli I (a strain resistant to carbapenem antibiotics); assay: as above; details: for MIC: Escherichia coli, read-out: Compound A MIC alone; for Compound A MIC in combination: with meropenem
From the text: as §1
3 strains of drug-resistant Escherichia coli I, namely drug-resistant Escherichia coli 18-W09-093, drug-resistant Escherichia coli 18-W37-025, and drug-resistant Escherichia coli 18-W37-032, are provided by Shanghai Junji Medical Laboratory Co., Ltd. These 3 strains are all resistant to carbapenem antibiotics (e.g., meropenem).
as §3, §4, §5, §6, §7, §8, §9, §10, §11

[3] = tested on: carbapenem-resistant Acinetobacter baumannii; assay: as above; details: for MIC: Acinetobacter baumannii, read-out: Compound A MIC alone; for Compound A MIC in combination: with meropenem
From the text: This experiment is designed to determine the minimum inhibitory concentration (MIC) of compound A in combination with meropenem against carbapenem-resistant Acinetobacter baumannii and to calculate the fractional inhibitory concentration (FIC) index.
Test bacteria: 10 strains of carbapenem-resistant Acinetobacter baumannii are clinically isolated strains, and are provided by Shanghai Junji Medical Laboratory Co., Ltd.
as §3
Compound A was dissolved in dimethyl sulfoxide to obtain a stock solution I with a concentration of 51200 mg/L. The stock solution I was subjected to 1:1 gradient dilution with dimethyl sulfoxide to obtain a dilution solution with a concentration range of 51200 to 25 mg/L. The corresponding concentrations were added to sterile water for 100-fold dilution to obtain working solution I with a concentration range of 512 to 0.25 mg/L.
Meropenem was dissolved in sterile water to obtain a stock solution with a concentration of 5120 mg/L. The […] stock solution was subjected to 1:1 gradient dilution with sterile water to obtain a working solution II with a concentration range of 512 to 0.25 mg/L.
as §6, §7, §8, §9
(1) The experimental results were determined according to the standard of CLSI 2020 M100 30th edition.
as §11

[4] = tested on: drug-resistant Escherichia coli 1864; assay: MIC of antibiotics against drug-resistant Escherichia coli II (resistance profile of the strain)
From the text: as §2

[5] = strain 1864, compound A + meropenem
[6] = strain 18-W09-093, compound A + meropenem
[7] = strain 18-W37-025, compound A + meropenem
[8] = strain 18-W37-032, compound A + meropenem
[9] = strain No. 1, compound A + meropenem
[10] = strain No. 2, compound A + meropenem
[11] = strain No. 3, compound A + meropenem
[12] = strain No. 4, compound A + meropenem
[13] = strain No. 5, compound A + meropenem
[14] = strain No. 6, compound A + meropenem
[15] = strain No. 7, compound A + meropenem
[16] = strain No. 8, compound A + meropenem
[17] = strain No. 9, compound A + meropenem
[18] = strain No. 10, compound A + meropenem
[19] = drug-resistant Escherichia coli 1864, read-out: MIC

In the case of O=[N+]([O-])c1cc(Cl)c2cccnc2c1O [Compound A, 5-chloro-7-nitro-8-hydroxyquinoline], the MIC ([1]; Escherichia coli, strain 1864, read-out: Compound A MIC alone) is reported as 4 µg/mL, the “effect of the combination (summary of Table 4)” value ([1]; compound A + meropenem, drug-resistant Escherichia coli II) is reported as “synergistic effect (FIC≤0.5 indicates synergistic effect)” and the FIC index [1, 5] is reported as 0.14. The Results [1, 5] was “Synergistic”, the “Compound A MIC in combination” value ([1]; strain 1864, with meropenem) was 0.5 mg/L and the MIC ([2]; strain 18-W09-093) was 32 µg/mL. For the same compound, the MIC ([2]; strain 18-W37-025) was 32 µg/mL, the MIC ([2]; strain 18-W37-032) was 32 µg/mL and the “effect of the combination (summary of Table 4)” value ([2]; compound A + meropenem, drug-resistant Escherichia coli I) was “synergistic effect (FIC≤0.5 indicates synergistic effect)”. The “change of the MIC of meropenem by the combination” value ([2]; compound A + meropenem, drug-resistant Escherichia coli I and II) was “significantly reduce”, the FIC index [2, 6] was 0.258 and the Results [2, 6] was “Synergistic”. The “Compound A MIC in combination” value ([2]; strain 18-W09-093) was 8 mg/L, the FIC index [2, 7] was 0.258 and the Results [2, 7] was “Synergistic”. For the same compound, the “Compound A MIC in combination” value ([2]; strain 18-W37-025) was 8 mg/L, the FIC index [2, 8] was 0.281 and the Results [2, 8] was “Synergistic”. For the same compound, the “Compound A MIC in combination” value ([2]; strain 18-W37-032) was 8 mg/L, the MIC ([3]; strain No. 1) was 32 µg/mL and the MIC ([3]; strain No. 2) was 16 µg/mL. It also gave an MIC ([3]; strain No. 3) of 16 µg/mL, an MIC ([3]; strain No. 4) of 16 µg/mL and an MIC ([3]; strain No. 5) of 16 µg/mL. It also gave an MIC ([3]; strain No. 6) of 16 µg/mL, an MIC ([3]; strain No. 7) of 16 µg/mL and an MIC ([3]; strain No. 8) of 8 µg/mL. For the same compound, the MIC ([3]; strain No. 9) was 8 µg/mL, the MIC ([3]; strain No. 10) was 16 µg/mL and the “change of the MIC of meropenem by the combination” value ([3]; compound A + meropenem) was “significantly reduce”. For the same compound, the “effect of the combination (summary of Table 5)” value ([3]; compound A + meropenem) was “synergistic effect (FIC≤0.5 indicates synergistic effect)”, the FIC index [3, 9] was 0.127 and the Results [3, 9] was “Synergistic”. For the same compound, the “Compound A MIC in combination” value ([3]; strain No. 1) was 0.06 mg/L, the FIC index [3, 10] was 0.129 and the Results [3, 10] was “Synergistic”. The “Compound A MIC in combination” value ([3]; strain No. 2) was 0.06 mg/L, the FIC index [3, 11] was 0.129 and the Results [3, 11] was “Synergistic”. For the same compound, the “Compound A MIC in combination” value ([3]; strain No. 3) was 0.06 mg/L, the FIC index [3, 12] was 0.129 and the Results [3, 12] was “Synergistic”. For the same compound, the “Compound A MIC in combination” value ([3]; strain No. 4) was 0.06 mg/L, the FIC index [3, 13] was 0.129 and the Results [3, 13] was “Synergistic”. For the same compound, the “Compound A MIC in combination” value ([3]; strain No. 5) was 0.06 mg/L, the FIC index [3, 14] was 0.129 and the Results [3, 14] was “Synergistic”. The “Compound A MIC in combination” value ([3]; strain No. 6) was 0.06 mg/L, the FIC index [3, 15] was 0.254 and the Results [3, 15] was “Synergistic”. For the same compound, the “Compound A MIC in combination” value ([3]; strain No. 7) was 0.06 mg/L, the FIC index [3, 16] was 0.133 and the Results [3, 16] was “Synergistic”. The “Compound A MIC in combination” value ([3]; strain No. 8) was 0.06 mg/L, the FIC index [3, 17] was 0.133 and the Results [3, 17] was “Synergistic”. The “Compound A MIC in combination” value ([3]; strain No. 9) was 0.06 mg/L, the FIC index [3, 18] was 0.129 and the Results [3, 18] was “Synergistic”. The “Compound A MIC in combination” value ([3]; strain No. 10) was 0.06 mg/L.

Work on C[C@H]1COc2c(N3CCN(C)CC3)c(F)cc3c(=O)c(C(=O)O)cn1c23 [Levofloxacin] yielded an MIC [4, 19] of 32 µg/mL.

CCn1cc(C(=O)O)c(=O)c2ccc(C)nc21 [Nalidixic acid] showed an MIC ([4]; Escherichia coli) of over 64 µg/mL.

COc1c(N2C[C@@H](C)C[C@H](N)C2)ccc2c(=O)c(C(=O)O)cn(C3CC3)c12 [Nemofloxacin] was tested, and the MIC [4, 19] was over 64 µg/mL.

Work on CN[C@H](CC(C)C)C(=O)N[C@H]1C(=O)N[C@@H](CC(N)=O)C(=O)N[C@H]2C(=O)N[C@H]3C(=O)N[C@H](C(=O)N[C@H](C(=O)O)c4cc(O)cc(O)c4-c4cc3ccc4O)[C@H](O)c3ccc(c(Cl)c3)Oc3cc2cc(c3O[C@@H]2O[C@H](CO)[C@@H](O)[C@H](O)[C@H]2O[C@H]2C[C@](C)(N)[C@H](O)[C@H](C)O2)Oc2ccc(cc2Cl)[C@H]1O [Vancomycin] yielded an MIC ([4]; Escherichia coli) of over 64 µg/mL.

Compound Gentamycin has an MIC ([4]; drug-resistant Escherichia coli 1864) of 64 µg/mL.

Source: patent US20260240832A1, “USE OF NITROXOLINE COMPOUND IN ENHANCING EFFECT OF ANTIBACTERIAL AGENT” (Jiangsu Yahong Meditech Co., Ltd., priority 2022, published 2026)
